Experimental data as given in PubChem BioAssay (NCI).
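GI50 = concentration required for 50% inhibition of growth. The concentration for full growth arrest is given as TGI.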

What was measured:
Assay in all cases: growth of human tumour cells (NCI), 384-well format
BT-549 breast = tested on: BT-549 breast
NCI-H226 lung = tested on: NCI-H226 lung
SK-MEL-5 melanoma = tested on: SK-MEL-5 melanoma
HS 578T breast = tested on: HS 578T breast
A549 NSCLC = tested on: A549 NSCLC
MDA-MB-435 melanoma = tested on: MDA-MB-435 melanoma
786-0 renal = tested on: 786-0 renal
MOLT-4 leukemia = tested on: MOLT-4 leukemia
U251 glioblastoma = tested on: U251 glioblastoma
PC-3 prostate = tested on: PC-3 prostate
HCC-2998 colon = tested on: HCC-2998 colon
T-47D breast = tested on: T-47D breast
NCI-H23 lung = tested on: NCI-H23 lung
OVCAR-3 ovarian = tested on: OVCAR-3 ovarian
ACHN renal = tested on: ACHN renal
M14 melanoma = tested on: M14 melanoma
MALME-3M melanoma = tested on: MALME-3M melanoma
COLO 205 colon = tested on: COLO 205 colon
SF-268 CNS = tested on: SF-268 CNS
HCT-116 colon = tested on: HCT-116 colon
TK-10 renal = tested on: TK-10 renal
CAKI-1 renal = tested on: CAKI-1 renal
UO-31 renal = tested on: UO-31 renal
NCI-H460 NSCLC = tested on: NCI-H460 NSCLC
LOX IMVI melanoma = tested on: LOX IMVI melanoma
K-562 leukemia = tested on: K-562 leukemia
EKVX NSCLC = tested on: EKVX NSCLC
UACC-257 melanoma = tested on: UACC-257 melanoma
RPMI-8226 leukemia = tested on: RPMI-8226 leukemia
NCI-H322M lung = tested on: NCI-H322M lung
HOP-92 NSCLC = tested on: HOP-92 NSCLC
SW-620 colon = tested on: SW-620 colon
RXF 393 renal = tested on: RXF 393 renal
A498 renal = tested on: A498 renal
HT29 colon = tested on: HT29 colon
MDA-MB-468 breast = tested on: MDA-MB-468 breast
KM12 colon = tested on: KM12 colon
SK-MEL-28 melanoma = tested on: SK-MEL-28 melanoma
HOP-62 NSCLC = tested on: HOP-62 NSCLC
CCRF-CEM leukemia = tested on: CCRF-CEM leukemia
SNB-75 CNS = tested on: SNB-75 CNS
SF-539 CNS = tested on: SF-539 CNS
SN12C renal = tested on: SN12C renal
IGROV1 ovarian = tested on: IGROV1 ovarian
OVCAR-4 ovarian = tested on: OVCAR-4 ovarian
HCT-15 colon = tested on: HCT-15 colon
DU-145 prostate = tested on: DU-145 prostate
SK-OV-3 ovarian = tested on: SK-OV-3 ovarian
HL-60(TB) leukemia = tested on: HL-60(TB) leukemia
SNB-19 CNS = tested on: SNB-19 CNS
NCI-H522 lung = tested on: NCI-H522 lung
MDA-MB-231 breast = tested on: MDA-MB-231 breast
SF-295 CNS = tested on: SF-295 CNS
OVCAR-8 ovarian = tested on: OVCAR-8 ovarian
MCF7 breast = tested on: MCF7 breast
NCI/ADR-RES ovarian = tested on: NCI/ADR-RES ovarian
UACC-62 melanoma = tested on: UACC-62 melanoma

In the case of `COc1cc(N2CCC(N)CC2)ccc1Nc1ncc(Cl)c(-c2c[nH]c3ccccc23)n1`, the GI50 (BT-549 breast) is reported as 1140 nM, the TGI (BT-549 breast) is reported as 2360 nM and the GI50 (NCI-H226 lung) is reported as 112 nM. It also gave a TGI (NCI-H226 lung) of 663 nM, a GI50 (SK-MEL-5 melanoma) of 610 nM and a TGI (SK-MEL-5 melanoma) of 2040 nM. For the same compound, the GI50 (HS 578T breast) was 651 nM, the TGI (HS 578T breast) was 1870 nM and the GI50 (A549 NSCLC) was 858 nM. It also gave a TGI (A549 NSCLC) of 2120 nM, a GI50 (MDA-MB-435 melanoma) of 395 nM and a TGI (MDA-MB-435 melanoma) of 1790 nM. It also gave a GI50 ([…]-0 renal) of 1010 nM, a TGI (786-0 renal) of 2190 nM and a GI50 (MOLT-4 leukemia) of 437 nM. For the same compound, the TGI (MOLT-4 leukemia) was 1640 nM, the GI50 (U251 glioblastoma) was 1210 nM and the TGI (U251 glioblastoma) was 2480 nM. For the same compound, the GI50 (PC-3 prostate) was 1090 nM, the TGI (PC-3 prostate) was 2330 nM and the GI50 (HCC-2998 colon) was 349 nM. It also gave a TGI (HCC-2998 colon) of 1680 nM, a GI50 (T-47D breast) of 1180 nM and a TGI (T-47D breast) of 2410 nM. It also gave a GI50 (NCI-H23 lung) of 318 nM, a TGI (NCI-H23 lung) of 1760 nM and a GI50 (OVCAR-3 ovarian) of 666 nM. The TGI (OVCAR-3 ovarian) was 2040 nM, the GI50 (ACHN renal) was 535 nM and the TGI (ACHN renal) was 1860 nM. It also gave a GI50 (M14 melanoma) of 388 nM, a TGI (M14 melanoma) of 1620 nM and a GI50 (MALME-3M melanoma) of 172 nM. It also gave a TGI (MALME-3M melanoma) of 1510 nM, a GI50 (COLO 205 colon) of 44.1 nM and a TGI (COLO 205 colon) of 1070 nM. For the same compound, the GI50 (SF-268 CNS) was 1150 nM, the TGI (SF-268 CNS) was 2400 nM and the GI50 (HCT-116 colon) was 361 nM. For the same compound, the TGI (HCT-116 colon) was 1580 nM, the GI50 (TK-10 renal) was 988 nM and the TGI (TK-10 renal) was 2180 nM. For the same compound, the GI50 (CAKI-1 renal) was 252 nM, the TGI (CAKI-1 renal) was 1070 nM and the GI50 (UO-31 renal) was 655 nM. The TGI (UO-31 renal) was 1950 nM, the GI50 (NCI-H460 NSCLC) was 184 nM and the TGI (NCI-H460 NSCLC) was 1390 nM. For the same compound, the GI50 (LOX IMVI melanoma) was 541 nM, the TGI (LOX IMVI melanoma) was 1860 nM and the GI50 (K-562 leukemia) was 876 nM. For the same compound, the TGI (K-562 leukemia) was 2130 nM, the GI50 (EKVX NSCLC) was 215 nM and the TGI (EKVX NSCLC) was 1470 nM. It also gave a GI50 (UACC-257 melanoma) of 789 nM, a TGI (UACC-257 melanoma) of 2100 nM and a GI50 (RPMI-8226 leukemia) of 476 nM. It also gave a TGI (RPMI-8226 leukemia) of 1580 nM, a GI50 (NCI-H322M lung) of 254 nM and a TGI (NCI-H322M lung) of 1420 nM. It also gave a GI50 (HOP-92 NSCLC) of 377 nM, a TGI (HOP-92 NSCLC) of 1670 nM and a GI50 (SW-620 colon) of 254 nM. The TGI (SW-620 colon) was 1330 nM, the GI50 (RXF 393 renal) was 739 nM and the TGI (RXF 393 renal) was 2050 nM. For the same compound, the GI50 (A498 renal) was 296 nM, the TGI (A498 renal) was 1330 nM and the GI50 (HT29 colon) was 55.9 nM. For the same compound, the TGI (HT29 colon) was 1350 nM, the GI50 (MDA-MB-468 breast) was 667 nM and the TGI (MDA-MB-468 breast) was 1930 nM. For the same compound, the GI50 (KM12 colon) was 209 nM, the TGI (KM12 colon) was 679 nM and the GI50 (SK-MEL-28 melanoma) was 1270 nM. For the same compound, the TGI (SK-MEL-28 melanoma) was 2530 nM, the GI50 (HOP-62 NSCLC) was 1220 nM and the TGI (HOP-62 NSCLC) was 2490 nM. It also gave a GI50 (CCRF-CEM leukemia) of 886 nM, a TGI (CCRF-CEM leukemia) of 2100 nM and a GI50 (SNB-75 CNS) of 322 nM. The TGI (SNB-75 CNS) was 1440 nM, the GI50 (SF-539 CNS) was 453 nM and the TGI (SF-539 CNS) was 1820 nM. The GI50 (SN12C renal) was 513 nM, the TGI (SN12C renal) was 1860 nM and the GI50 (IGROV1 ovarian) was 284 nM. The TGI (IGROV1 ovarian) was 1000 nM, the GI50 (OVCAR-4 ovarian) was 1210 nM and the TGI (OVCAR-4 ovarian) was 2480 nM. For the same compound, the GI50 (HCT-15 colon) was 265 nM, the TGI (HCT-15 colon) was 1460 nM and the GI50 (DU-145 prostate) was 389 nM. For the same compound, the TGI (DU-145 prostate) was 1710 nM, the GI50 (SK-OV-3 ovarian) was 334 nM and the TGI (SK-OV-3 ovarian) was 1440 nM. The GI50 (HL-60(TB) leukemia) was 21.4 nM, the TGI (HL-60(TB) leukemia) was 424 nM and the GI50 (SNB-19 CNS) was 1570 nM. It also gave a TGI (SNB-19 CNS) of 2940 nM, a GI50 (NCI-H522 lung) of 221 nM and a TGI (NCI-H522 lung) of 1230 nM. For the same compound, the GI50 (MDA-MB-231 breast) was 1080 nM, the TGI (MDA-MB-231 breast) was 2300 nM and the GI50 (SF-295 CNS) was 1450 nM. It also gave a TGI (SF-295 CNS) of 2770 nM, a GI50 (OVCAR-8 ovarian) of 1170 nM and a TGI (OVCAR-8 ovarian) of 2410 nM. It also gave a GI50 (MCF7 breast) of 59.5 nM, a TGI (MCF7 breast) of 1220 nM and a GI50 (NCI/ADR-RES ovarian) of 1480 nM. For the same compound, the TGI (NCI/ADR-RES ovarian) was 2810 nM, the GI50 (UACC-62 melanoma) was 385 nM and the TGI (UACC-62 melanoma) was 1770 nM.
